Test results: patent US20020041897A1, “Compositions for sustained release of antineoplastic taxanes, and methods of making and using the same” (priority 2000, published 2002)

Assay: Plasma concentrations of paclitaxel as a function of dose after intraperitoneal administration to dogs
Details: dog
Protocol: (30%) microspheres were administered intraperitoneally to dogs at doses of 90, 120, 150, 180 and 210 mg/kg; paclitaxel was administered at doses of 9 mg/kg and 12 mg/kg to other dogs. Each dose group comprised one female dog. Plasma samples were taken from each dog at various time points. Samples were analyzed using a LC/MS/MS method. Results are depicted in FIG. 10.
Following administration of 90 and 120 mg/kg doses of […] (30%) microspheres, plasma samples were collected through 63 days. At doses of 150 and 180 mg/kg, the last sample was obtained at 35 days. The last sampling time for the 210 mg/kg dose was 28 days.

CC(=O)O[C@H]1C(=O)[C@@]2(C)[C@H]([C@H](OC(=O)c3ccccc3)[C@]3(O)C[C@H](OC(=O)[C@H](O)[C@@H](NC(=O)c4ccccc4)c4ccccc4)C(C)=C1C3(C)C)[C@]1(OC(C)=O)CO[C@@H]1C[C@@H]2O [paclitaxel]
toxicity outcome (in vivo, ip, 12 mg/kg): euthanized before the completion of the study due to toxicity
decline of plasma paclitaxel concentration (intraperitoneal, 9 mg/kg): declined in a biphasic manner
time at which maximum plasma paclitaxel concentration was reached (intraperitoneal, 9 mg/kg): 0.5 days
time post dose beyond which plasma paclitaxel could not be detected (intraperitoneal, 9 mg/kg): ≤ 7 days
